DC50, GI50 and IC50 data for two molecules are collected here from patent publication EP4763845A1, “CYANO AROMATIC RING DERIVATIVE AND PHARMACEUTICAL USE THEREOF” (Haisco Pharmaceutical Group Co., Ltd., priority 2023, dated 2025).

Common to all, as to format: cell-based
One data set deals with T1, AR protein (Homo sapiens, UniProt P10275).
T1 construct: VCap is a human prostate cancer cell line purchased from ATCC; host or cells: VCaP human prostate cancer cells
T1 sequence (P10275 1-920): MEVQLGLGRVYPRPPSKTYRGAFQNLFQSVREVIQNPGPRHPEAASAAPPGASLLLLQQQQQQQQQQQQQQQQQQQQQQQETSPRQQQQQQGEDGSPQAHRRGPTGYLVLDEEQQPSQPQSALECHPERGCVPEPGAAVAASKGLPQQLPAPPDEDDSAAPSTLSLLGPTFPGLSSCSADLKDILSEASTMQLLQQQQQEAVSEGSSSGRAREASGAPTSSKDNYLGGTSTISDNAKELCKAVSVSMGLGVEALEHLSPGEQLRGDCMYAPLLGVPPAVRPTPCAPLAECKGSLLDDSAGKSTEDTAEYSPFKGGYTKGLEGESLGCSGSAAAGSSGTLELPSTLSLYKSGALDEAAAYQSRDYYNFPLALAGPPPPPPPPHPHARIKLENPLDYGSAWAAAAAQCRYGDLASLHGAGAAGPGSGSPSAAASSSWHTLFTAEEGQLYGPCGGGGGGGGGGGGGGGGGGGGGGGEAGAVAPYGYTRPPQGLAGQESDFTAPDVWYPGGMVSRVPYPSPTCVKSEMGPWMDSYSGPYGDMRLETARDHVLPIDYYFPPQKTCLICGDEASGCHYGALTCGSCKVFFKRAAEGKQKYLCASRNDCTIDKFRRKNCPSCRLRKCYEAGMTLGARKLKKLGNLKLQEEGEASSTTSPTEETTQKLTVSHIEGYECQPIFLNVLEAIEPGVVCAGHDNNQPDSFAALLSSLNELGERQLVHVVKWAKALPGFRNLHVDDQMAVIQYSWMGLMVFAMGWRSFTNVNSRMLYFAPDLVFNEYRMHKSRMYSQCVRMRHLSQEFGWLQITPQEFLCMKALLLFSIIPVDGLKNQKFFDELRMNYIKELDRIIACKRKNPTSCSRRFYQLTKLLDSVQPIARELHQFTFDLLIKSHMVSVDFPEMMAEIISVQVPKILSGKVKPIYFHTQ
The data set can be described thus: Detection of AR degradation in VCaP cells (automated western blot). The note with it: degradation of AR protein in VCaP cells, 24 hours incubation; read-out: DC50. The method in brief:
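VCaP cells (5 × 10^5/well) were treated with compounds at various concentrations for 24 h at 37°C. Lysate AR level was quantified by automated capillary western blot, normalised to β-actin and expressed relative to solvent control. DC50 came from four-parameter nonlinear regression; degradation rate = 100 − AR%.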
A general note: Immunoblotting shows a protein as a band on a membrane.

The test system of another data set is VCaP cells. The data set can be described thus: VCaP cell proliferation inhibition experiment (CellTiter-Glo). The note with it: Homo sapiens, 168 h.
For a further data set, the target named is T2, hERG potassium channel (Homo sapiens, UniProt Q12809).
T2 construct: expressed in transfected cells; host or cells: CHO cells stably expressing hERG
T2 sequence (Q12809 whole entry): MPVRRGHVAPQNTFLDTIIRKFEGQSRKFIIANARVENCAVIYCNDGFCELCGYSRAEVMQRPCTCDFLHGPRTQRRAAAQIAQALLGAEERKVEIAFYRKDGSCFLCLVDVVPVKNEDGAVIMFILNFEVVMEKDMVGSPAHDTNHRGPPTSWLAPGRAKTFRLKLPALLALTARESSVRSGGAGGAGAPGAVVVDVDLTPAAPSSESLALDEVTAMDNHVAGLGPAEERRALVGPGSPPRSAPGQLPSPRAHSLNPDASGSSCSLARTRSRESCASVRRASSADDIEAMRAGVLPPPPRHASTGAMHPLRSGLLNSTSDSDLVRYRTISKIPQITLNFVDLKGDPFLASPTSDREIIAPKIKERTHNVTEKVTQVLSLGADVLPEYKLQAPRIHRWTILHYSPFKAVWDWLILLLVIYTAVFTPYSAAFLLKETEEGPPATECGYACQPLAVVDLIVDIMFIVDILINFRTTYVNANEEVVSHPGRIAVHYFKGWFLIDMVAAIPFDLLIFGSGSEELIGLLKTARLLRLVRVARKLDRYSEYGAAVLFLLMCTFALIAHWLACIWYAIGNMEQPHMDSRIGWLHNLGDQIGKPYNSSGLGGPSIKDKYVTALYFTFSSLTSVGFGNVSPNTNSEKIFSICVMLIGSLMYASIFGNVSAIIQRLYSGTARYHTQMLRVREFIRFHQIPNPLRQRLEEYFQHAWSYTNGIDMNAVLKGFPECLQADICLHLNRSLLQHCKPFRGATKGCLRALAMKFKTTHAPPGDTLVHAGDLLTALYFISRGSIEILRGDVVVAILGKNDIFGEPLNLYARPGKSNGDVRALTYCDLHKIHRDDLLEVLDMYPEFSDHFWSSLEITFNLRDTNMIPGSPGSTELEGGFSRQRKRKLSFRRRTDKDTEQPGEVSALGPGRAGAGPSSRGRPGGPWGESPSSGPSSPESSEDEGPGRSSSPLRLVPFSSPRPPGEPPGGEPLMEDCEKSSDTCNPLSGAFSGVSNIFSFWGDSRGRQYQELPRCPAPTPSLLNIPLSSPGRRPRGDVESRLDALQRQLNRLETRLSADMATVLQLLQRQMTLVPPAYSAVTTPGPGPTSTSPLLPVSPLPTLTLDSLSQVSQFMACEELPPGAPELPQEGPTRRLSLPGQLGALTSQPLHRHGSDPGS
The data set can be described thus: hERG potassium ion channel test (manual patch-clamp, CHO cells). The following applies: chinese hamster; inhibitory activity against hERG potassium channel current, CHO cells, whole cell patch-clamp; read-out: IC50. An excerpt: Experimental platform: Electrophysiological manual patch-clamp system
Cell line: Chinese hamster ovary (CHO) cell lines stably expressing hERG potassium ion channel
Experimental method: In Chinese Hamster Ovary (CHO) cells stably expressing hERG potassium channel, whole cell patch-clamp technique was used to record hERG potassium channel current at room temperature. The glass microelectrode was made of a glass electrode blank (BF150-86-10, Sutter) by a puller. The tip resistance after filling the liquid in the electrode was about 2-5 MΩ. The glass microelectrode can be connected to the patch-clamp amplifier by inserting the glass microelectrode into an amplifier probe. The clamping voltage and data recording were controlled and recorded by the pClamp 10 software through a computer. The sampling frequency was 10 kHz, and the filtering frequency was 2 kHz. After the whole cell records were obtained, the cells were clamped at -80 mV, and the step voltage that induced the hERG potassium current (I hERG) was depolarised from -80 mV to +20 mV for 2 s, then repolarised to -50 mV, and returned to -80 mV after 1 s. This voltage stimulation was given every 10 s, and the administration process was started after the hERG potassium current was confirmed to be stable (at least 1 minute). The compound was administered for at least 1 minute at each test concentration, and at least 2 cells (n ≥ 2) were tested at each concentration.
Data processing: Data analysis processing was carried out by using pClamp 10, GraphPad Prism 5 and Excel software.
Compound IC50 was calculated using GraphPad Prism 5 software by fitting according to the following equation: Y = Bottom + (Top−Bottom)/(1+10^(∧)((LogIC50−X)*HillSlope)) [formula] where X represents the Log value of the tested concentration of the test sample, Y represents the inhibition percentage at the corresponding concentration, and Bottom and Top represent the minimum and maximum inhibition percentage, respectively.
For orientation: The hERG channel carries a current that helps repolarise heart muscle cells.

For data set [1], the system named is Human CD34+ Hematopoietic stem cells. The data set can be described thus: Human CD34+ hematopoietic stem cell proliferation inhibition experiment. The following applies: 168 h, inhibitory activity against the proliferation of CD34+ hematopoietic stem cells, 7 days. Here is the method:
Human CD34+ Hematopoietic stem cells (TPCS, Cat.hmPB34-P-2CW) are CD34-positive stem cells obtained from human PBMCs through immunomagnetic bead sorting. The culture conditions are as follows: DPBS (Gibco, Cat.14190-144) +StemSpan SFEM II ([…], Cat.9655) +1X StemSpan CD34+ Expansion Supplement ([…], Cat.2691). First, 40 nL of DMSO, the positive reference compound Talazoparib, or the test compounds were respectively added to a 384-well plate (Corning, Cat. 3764). Then, a cell suspension was added at 400 cells per well in 40 µL of medium, resulting in final concentrations of 0.1% DMSO, 3 µM Talazoparib, or various concentrations of the compounds in each well. The plate was centrifuged at room temperature at 1000 rpm for 1 minute, followed by incubation for 7 days in a 37°C, 5% CO2 incubator. Following incubation, 20 µL of CellTiter-Glo Reagent (Promega, Cat. G7573) was directly added to each well, and the plate was centrifuged at room temperature at 1000 rpm for 1 minute, followed by incubation for 20 minutes in the dark. Following incubation, the chemiluminescent signal (CFU) was read and recorded using an Envision multimode microplate reader (PerkinElmer, Cat. 2104). The cell proliferation inhibition rate at various compound concentrations was calculated according to Equation (3), where CFUhigh control represents the average signal value of the DMSO group, CFUlow control represents the average signal value of the Talazoparib group, and CFUcompound represents the average signal value of the compound-treated group. The processed data obtained from Equation (3) were analysed using XLfit or GraphPad Prism software, and a four-parameter curve fitting model was applied to calculate the compound concentration corresponding to a 50% inhibition rate, i.e., the IC50 value. Inhibition% = (CFUhigh control−CFUcompound)/(CFUhigh control−CFUlow control) × 100% [formula]

For `COc1cc(O[C@H]2C(C)(C)[C@H](NC(=O)c3ccc(N4CCC(CN5CCN6c7cc(F)c(C(=O)N[C@H]8CCC(=O)NC8=O)cc7CC[C@@H]6C5)CC4)cc3)C2(C)C)ccc1C#N` [Compound 11], the DC50 at AR protein is under 0.1 µM. The molecule also yielded a GI50 in the data set on VCaP cells of under 0.3 µM. The IC50 on hERG potassium channel was over 40 µM; in data set [1], over 10 µM.
As for `COc1cc(O[C@H]2C(C)(C)[C@H](NC(=O)c3ccc(N4CCC5(CC4)CC(CN4CCN6c7cc(F)c(C(=O)N[C@H]8CCC(=O)NC8=O)cc7CC[C@H]6C4)C5)cc3)C2(C)C)ccc1C#N` [Trifluoroacetate of compound 7], the DC50 at AR protein is under 0.1 µM. This molecule returned an IC50 in data set [1] of over 10 µM.

One may read the DC50 as the midpoint of the concentration-degradation curve. What is called GI50 is the concentration that inhibits growth by half. As a reminder, the IC50 is the concentration needed to halve the response being measured.
